From patent US12678451B2, “Cannabinoid and omega fatty acid compositions and methods of using” (GreenWay Herbal Products, LLC, priority 2019, dated 2026)

What was measured:
[1] = DPPH antioxidant assay; format: biochemical
Protocol: The ability of the cannabinoids to act as potential antioxidants was assessed using the 2,2-diphenyl-1-picrylhydrazyl (DPPH) antioxidant assay. The cannabinoids CBDA, CBD, CBDVA, CBDV, CBG, THCV, and the 1:1 CBD:CBDA mixture had the highest antioxidant activities with radical scavenging activities of 38.19%, 48.00%, 43.81%, 44.21%, 44.28%, 45.71%, and 43.74%, respectively.
The 2,2-diphenyl-1-picrylhydrazyl (DPPH) free radical (Alfa Aesar) was prepared at 0.1 mM in ethanol. The cannabinoids were tested at a final concentration of 100 uM. 2 uL of 7.5 mM stock solutions of the cannabinoids to be tested in DMSO were added to 148 uL of 0.1 mM DPPH to achieve a final concentration of 100 μM in the assay. Ascorbic acid (Thermo Scientific) at a final concentration of 10 mg/ml was used as a positive control. The reaction mixture was incubated in the dark at room temperature for 1 hour, the absorbance of the mixture was read at 517 nm using a Spectra Max 5M microplate reader (Molecular Devices, LLC, Sunnyvale, Calif., USA) and the absorbance was converted to percent radical scavenging activity (% RSA) using the following formula: % RSA=[(Absorbance of the control−Absorbance of the sample)/(Absorbance of the control)]×100.
Free radical production occurs when the immune system is activated and antioxidants represent potential effective treatments for inflammatory conditions and autoimmune diseases. […] The DPPH antioxidant assay can be used to measure the ability of a compound to scavenge free radicals by measuring the ability of compounds to hydrogenate and reduce DPPH. The DPPH assay was conducted on CBCA, CBDA, CBDVA, CBGA, CBLA, CBNA, THCVA, and their decarboxylated derivatives as well as the 1:1 CBD:CBDA mixture.

[2] = test system: differentiated U-937 cells; assay: Human cellular U-937 autophagy induction assay (anti-LC3); format: cell-based; settings: for activation at 1 µM: Homo sapiens, U-937, 12 h, read-out: Induction of autophagy with respect to the untreated control
Protocol: The induction of autophagy was monitored using anti-LC3 antibodies to detect LC3 on the autophagosome in human U-937 pro-monocytic histiocytic lymphoma cells (ATCC, Manassas, Va., USA), which generate morphologies characteristic of macrophages upon induction by various stimuli. U-937 cells were cultured in RPMI-1640 medium with L-glutamine and sodium bicarbonate (Sigma-Aldrich, St Louis, Mo.) supplemented with 10% fetal bovine serum (FBS) and 1% penicillin in 25 cm2 tissue flasks at 37° C. in a 5% CO2 humidified atmosphere and passaged every 2-3 days. U-937 cells were seeded in 96 well plates at 5×10^5 cells/mL and stimulated with 100 ng/mL PMA to induce differentiation for 24 hours. The cells were then treated with the various cannabinoids at 1.0 μM concentrations for 12 hours. 30 μM chloroquine was used as a positive control. After treatment, the cells were fixed using 3.7% formaldehyde in PBS for 15 minutes at room temperature and washed with PBS to remove the fixative. Permeabilization reagent (0.2% Triton X-100 in PBS) (Sigma-Aldrich) was added, the cells were incubated for 15 minutes at room temperature and then the cells were washed with PBS to remove the permeabilization reagent. LC3B rabbit polyclonal antibody (Invitrogen) was added at a final concentration of 0.5 μg/ml for 1 hour at room temperature and the cells were washed with PBS remove the primary antibody. Secondary conjugated goat anti-rabbit polyclonal antibody (Thermo Scientific) was then added at a final concentration of 2.0 μg/ml for 1 hour at room temperature. The cells were washed, Hoechst dye was added to stain the nucleus and the cells were imaged using an Arrayscan VTI high-content screening (HCS) reader (Thermo Scientific) with the appropriate filters and the data was analyzed using the vHCS Scan software.
Chloroquine at a concentration of 30 μM was included as a positive control. The ability to induce autophagy was determined as a percentage with respect to the untreated control.

[3] = test system: cytokine levels in differentiated THP-1 cells treated with LPS; assay: THP-1 human cellular LPS cytokine assay, three independent experiments, total averaged suppression; settings: for inhibition at 2 µM: Homo sapiens, THP-1, 4 h, read-out: % Cytokine Suppression (total averaged)
Protocol: Cells were seeded onto 24-, or 12-well plates and incubated for 48 hours to 72 hours to allow for differentiation. […] Supernatants were collected for quantification of human cytokine levels to assess the cytokine response. Cells remaining after the supernatant collection were tested to ensure they had at least 90% viability as determined by Alamar Blue assays. To conduct the Alamar Blue assays, supernatants were replaced with culture medium containing 1× Alamar Blue reagent and incubated overnight. Cell viability was assessed by measuring relative fluorescent units (RFU) on the SpectraMax M2e microplate reader (Molecular Devices Inc., Sunnyvale, Calif., USA) at Excitation 560 nm and Emission 590 nm. Controls included untreated cells with DMSO at the same concentration as the treated cells, LPS stimulated cells with DMSO at the same concentration as the treated cells and LPS stimulated cell with the various treatments. The levels of 42 of the most common human cytokines (Eve Technologies, Calgary, Canada Table 6) were determined by multi-plex analysis.
For this reason, the level of cytokine suppression was determined for each cytokine by each cannabinoid that was tested and the total averaged suppression for each cannabinoid was determined by dividing the total suppression by the number of the cytokines that were analyzed.

SMILES	% RSA (radical scavenging activity) ([1]; 10 mg/ml, positive control)	Fluorescence (LC3) ([2]; 1.0 μM, 12 hours)	activation at 1 µM [2]	% RSA (radical scavenging activity) ([1]; 100 μM, 1 hour)	inhibition at 2 µM [3]	effectiveness at reducing elevated cytokine levels relative to dexamethasone [3]	radical scavenging activity compared to the untreated control ([1]; 100 μM)	Fluorescence (LC3) ([2]; 30 uM, positive control)
O=C1O[C@H]([C@@H](O)CO)C(O)=C1O [Ascorbic acid, reference compound]	94.00%	–	–	–	–	–	–	–
CCCCCc1cc(O)c2c(c1)OC(C)(CCC=C(C)C)C=C2 (centres unmarked) [CBC, 2-Methyl-2-(4-methyl-3-penten-1-yl)-7-pentyl-2H-chromen-5-ol]	–	47.84	-0.85%	31.95%	22.6%	–	–	–
CCCCCc1cc2c(c(O)c1C(=O)O)C=CC(C)(CCC=C(C)C)O2 (centres unmarked) [CBCA, 5-Hydroxy-2-methyl-2-(4-methyl-3-penten-1-yl)-7-pentyl-2H-chromene-6-carboxylic acid]	–	42.61	-11.7%	19.02%	34.6%	at least half as effective as dexamethasone	–	–
C=C(C)C1CCC(C)=CC1c1c(O)cc(CCC)cc1O (centres unmarked) [CBDV, 2-(6-Isopropenyl-3-methyl-2-cyclohexen-1-yl)-5-propyl-1,3-benzenediol]	–	38.19	-20.9%	44.21%	36.7%	at least half as effective as dexamethasone	at least two-fold	–
C=C(C)[C@@H]1CCC(C)=C[C@H]1c1c(O)cc(CCC)c(C(=O)O)c1O [CBDVA, 2,4-Dihydroxy-3-[(1R,6R)-6-isopropenyl-3-methyl-2-cyclohexen-1-yl]-6-propylbenzoic acid]	–	39.29	-18.6%	43.81%	32.4%	at least half as effective as dexamethasone	at least two-fold	–
CCCCCc1cc(O)c(C/C=C(\C)CCC=C(C)C)c(O)c1 [CBG, 2-[(2E)-3,7-Dimethyl-2,6-octadien-1-yl]-5-pentyl-1,3-benzenediol]	–	37.35	-22.6%	44.28%	35.8%	at least half as effective as dexamethasone	at least two-fold	–
CCCCCc1cc(O)c(C/C=C(\C)CCC=C(C)C)c(O)c1C(=O)O [CBGA, 3-[(2E)-3,7-Dimethyl-2,6-octadien-1-yl]-2,4-dihydroxy-6-pentylbenzoic acid]	–	37.47	-22.3%	26.84%	34.3%	at least half as effective as dexamethasone	–	–
CCCCCc1cc(O)c2c(c1)OC1(C)CCC3C1C2C3(C)C (centres unmarked) [CBL, 1,1,3a-Trimethyl-6-pentyl-1a,2,3,3a,8b,8c-hexahydro-1H-4-oxabenzo[f]cyclobuta[cd]inden-8-ol]	–	76.86	59.3%	30.84%	43.6%	at least half as effective as dexamethasone	–	–
CCCCCc1cc2c(c(O)c1C(=O)O)[C@@H]1[C@H]3[C@H](CC[C@@]3(C)O2)C1(C)C [CBLA, (1aS,3aR,8bR,8cR)-8-Hydroxy-1,1,3a-trimethyl-6-pentyl-1a,2,3,3a,8b,8c-hexahydro-1H-4-oxabenzo[f]cyclobuta[cd]indene-7-carboxylic acid]	–	72.27	49.8%	21.18%	34.4%	at least half as effective as dexamethasone	–	–
CCCCCc1cc(O)c2c(c1)OC(C)(C)c1ccc(C)cc1-2 [CBN, 6,6,9-Trimethyl-3-pentyl-6H-benzo[c]chromen-1-ol]	–	40.80	-15.4%	33.83%	37%	at least half as effective as dexamethasone	–	–
CCCCCc1cc2c(c(O)c1C(=O)O)-c1cc(C)ccc1C(C)(C)O2 [CBNA, 1-Hydroxy-6,6,9-trimethyl-3-pentyl-6H-benzo[c]chromene-2-carboxylic acid]	–	36.89	-23.5%	24.92%	34%	at least half as effective as dexamethasone	–	–
CCN(CC)CCCC(C)Nc1ccnc2cc(Cl)ccc12 (centres unmarked) [Chloroquine, chloroquine, reference compound]	–	–	–	–	–	–	–	111.20
CCCc1cc(O)c2c(c1)OC(C)(C)[C@@H]1CCC(C)=C[C@@H]21 [THCV, (6aR,10aR)-6,6,9-trimethyl-3-propyl-6H,6aH,7H,8H,10aH-benzo[c]isochromen-1-ol]	–	42.14	-12.7%	45.71%	34.8%	at least half as effective as dexamethasone	at least two-fold	–
CCCc1cc2c(c(O)c1C(=O)O)[C@@H]1C=C(C)CC[C@H]1C(C)(C)O2 [THCVA, (6aR,10aR)-6a,7,8,10a-tetrahydro-1-hydroxy-6,6,9-trimethyl-3-propyl-6H-Dibenzo[b,d] pyran-2-carboxylic acid]	–	66.45	37.7%	29.22%	28.4%	at least half as effective as dexamethasone	–	–
